Measurements reported in paper PMC12782889, “A GmNRF5a–GmCERK1–GmCAK1 module mediates chitin/chitosan‐triggered immune response in soybean” (Journal of Integrative Plant Biology, 2025).

Key:
[1] = test system: GmNFR5a-GmCERK1 interaction; assay: Co-immunoprecipitation of GmNFR5a-GFP with GmCERK1-HA in N. benthamiana; type: cell-based, soybean (Glycine max); settings: Co-IP; N. benthamiana leaves treated 50 mg/L for 5 min
Description: (§1) Nicotiana benthamiana leaves were harvested 48 h post inoculation (hpi) after agroinfiltration. Samples were ground in liquid nitrogen and incubated for 30 min in a lysis buffer (50 mM Tris-HCl pH 8.0, 150 mM NaCl, 1.0% (v/v) NP-40, 0.1% SDS (w/v) and 0.1% protease inhibitor cocktail ([…]; Sigma, St. Louis, MI, USA)). Supernatant was collected by centrifugation at 21,000 g for 15 min and then incubated with GFP-trap beads (item No.: gta-20; Chromotek, Hauppauge, NY, USA) at 4°C for 2 h. The GFP-trap beads were pelleted by centrifugation at 500 g for 2 min and washed with lysis buffer at least four times. Proteins were eluted by boiling the beads in a protein loading buffer for 10 min and detected by immunoblot analysis with anti-GFP (Cat No. M20004; Abmart, Shanghai, China) or anti-HA (Cat No. M20013; Abmart, Shanghai, China).

UGT76G1 = target: T1, UGT76G1 (Stevia rebaudiana, UniProt Q6VAB4); assay: MST binding to UGT76G1 (negative control protein)
T1 construct: made in house
T1 sequence (Q6VAB4 1-458): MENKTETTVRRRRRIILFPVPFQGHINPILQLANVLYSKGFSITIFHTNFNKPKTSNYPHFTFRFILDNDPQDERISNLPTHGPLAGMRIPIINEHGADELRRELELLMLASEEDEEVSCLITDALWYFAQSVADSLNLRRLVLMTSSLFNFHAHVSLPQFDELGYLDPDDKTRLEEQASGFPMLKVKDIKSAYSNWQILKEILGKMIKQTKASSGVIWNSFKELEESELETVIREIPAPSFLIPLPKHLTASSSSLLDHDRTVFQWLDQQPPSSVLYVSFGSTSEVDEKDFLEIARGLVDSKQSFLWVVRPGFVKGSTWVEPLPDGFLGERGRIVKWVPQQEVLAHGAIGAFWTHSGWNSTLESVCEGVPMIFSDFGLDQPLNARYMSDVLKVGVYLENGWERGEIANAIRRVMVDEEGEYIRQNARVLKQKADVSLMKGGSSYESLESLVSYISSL

[2] = test system: GmCERK1-GmCAK1 interaction; assay: Co-immunoprecipitation of GmCERK1-GFP with GmCAK1-HA in N. benthamiana; type: cell-based, soybean (Glycine max); settings: Co-IP; N. benthamiana leaves treated 50 mg/L for 5 min
Description: as §1

AtCERK1^ECD = target: T2, AtCERK1^ECD (Arabidopsis thaliana, UniProt A8R7E6); assay: Microscale thermophoresis (MST) binding to AtCERK1^ECD (positive control); settings: ligand dp6, protein purified from Pichia pastoris, read-out: dissociation constant (K D) with AtCERK1^ECD
T2 construct: ectodomain of AtCERK1 (aa25–224); made in house; host or cells: Pichia pastoris X-33
T2 sequence (A8R7E6 25-224): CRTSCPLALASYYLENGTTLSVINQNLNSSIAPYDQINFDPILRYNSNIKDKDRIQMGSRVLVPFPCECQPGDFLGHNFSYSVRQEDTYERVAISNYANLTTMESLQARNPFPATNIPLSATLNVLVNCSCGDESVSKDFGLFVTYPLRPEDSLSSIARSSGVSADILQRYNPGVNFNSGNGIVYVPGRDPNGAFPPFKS

GmNFR5a homodimer = assay: Co-immunoprecipitation of GFP-tagged GmNFR5a with HA-tagged GmNFR5a in N. benthamiana; type: cell-based, soybean (Glycine max); settings: Co-IP; N. benthamiana leaves treated 50 mg/L for 5 min
Description: as §1

GmCERK1 homodimer = assay: Co-immunoprecipitation of GmCERK1-GFP with GmCERK1-HA in N. benthamiana; type: cell-based, soybean (Glycine max); settings: Co-IP; N. benthamiana leaves treated 50 mg/L for 5 min
Description: as §1

Phytophthora sojae P6497 = assay: P. sojae infection of pretreated soybean etiolated hypocotyls; type: in vivo, Phytophthora sojae on soybean (Glycine max); settings: for biomass of P. sojae: dp6, 50 mg/L, 24 h before inoculation with zoospores, etiolated hypocotyls, 48 hpi, genomic DNA qPCR, vs mock dH2O
Description: For soybean etiolated hypocotyls inoculation assays, etiolated hypocotyls of soybean (cultivar Williams) were inoculated with P. sojae zoospore suspensions (100 zoospores). Infected etiolated hypocotyls were maintained at 25°C in the dark for 2 d, photographed and collected for biomass detection. For soybean hairy‐root inoculation assays, transgenic hairy roots were soaked in CTOS/CSOS (50 mg/L) or mock (dH2O) for 12 h and then were infected with red fluorescent protein (RFP)‐labeled P. sojae strain P6497, and fluorescence was visualized in the infected area of soybean hairy root and the biomass of P. sojae was determined by qRT‐PCR at 48 hpi.

SMILES	GmNFR5a interaction with GmCERK1 [1]	binding to UGT76G1 (UGT76G1)	interaction between GmCERK1 and GmCAK1 [2]	Kd (AtCERK1^ECD)	GmNFR5a homodimer formation (GmNFR5a homodimer)	GmCERK1-GFP / GmCERK1-HA interaction (homodimer) (GmCERK1 homodimer)	biomass of P. sojae (Phytophthora sojae P6497)	plant resistance elicited, compared with CTOS (Phytophthora sojae P6497; soybean etiolated hypocotyls, P. sojae (Figure 1E, F))
N[C@H]1[C@H](O[C@H]2[C@H](O)[C@@H](N)[C@H](O[C@H]3[C@H](O)[C@@H](N)[C@H](O[C@H]4[C@H](O)[C@@H](N)[C@H](O[C@H]5[C@H](O)[C@@H](N)[C@H](O[C@H]6[C@H](O)[C@@H](N)C(O)O[C@@H]6CO)O[C@@H]5CO)O[C@@H]4CO)O[C@@H]3CO)O[C@@H]2CO)O[C@H](CO)[C@@H](O)[C@@H]1O (stereo partly drawn) [CSOS (dp6), chitosan oligosaccharide]	interacted strongly	cannot bind	diminished	2730 ± 430 µM	strong homodimer	strong interaction	significantly lower	somewhat weaker
CC(=O)N[C@H]1[C@H](O[C@H]2[C@H](O)[C@@H](NC(C)=O)[C@H](O[C@H]3[C@H](O)[C@@H](NC(C)=O)C(O)O[C@@H]3CO)O[C@@H]2CO)O[C@H](CO)[C@@H](O[C@@H]2O[C@H](CO)[C@@H](O[C@@H]3O[C@H](CO)[C@@H](O[C@@H]4O[C@H](CO)[C@@H](O)[C@H](O)[C@H]4NC(C)=O)[C@H](O)[C@H]3NC(C)=O)[C@H](O)[C@H]2NC(C)=O)[C@@H]1O (stereo partly drawn) [CTOS (dp6), chitin oligosaccharide]	interacted strongly	cannot bind	diminished	660 ± 270 µM	strong homodimer	strong interaction	significantly lower	–
